# Key:
# Experiment in all cases: Histone peptide microarray
# Format in all cases: binding, human
# AIRE (PP) = conditions: GST-tagged AIRE (PP)
# Summary of the method: (§1)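 GST-tagged PHD finger readers were expressed, purified and applied at 0.5 μM to a microarray of 293 synthetic histone peptides carrying single or combinatorial PTMs, using an optimized protocol. Binding signals are averages with standard deviation from 4 replicates.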
# BAZ2B = conditions: GST-tagged BAZ2B
# Summary of the method: as §1
# BPTF (PB) = tested on: BPTF (PB)
# Summary of the method: as §1
# CHD4 (PPCC) = tested on: CHD4 (PPCC)
# Summary of the method: as §1
# CHD5 (PCC) = tested on: CHD5 (PCC)
# Summary of the method: as §1
# CHD5 (PPCC) = tested on: CHD5 (PPCC)
# Summary of the method: as §1
# DIDO1 = conditions: GST-tagged DIDO1
# Summary of the method: as §1
# DPF2 (PPC2W2) = tested on: DPF2 (PPC2W2)
# Summary of the method: as §1
# ING1 = conditions: GST-tagged ING1
# Summary of the method: as §1
# ING2 = conditions: GST-tagged ING2
# Summary of the method: as §1
# ING3 = conditions: GST-tagged ING3
# Summary of the method: as §1
# ING4 = conditions: GST-tagged ING4
# Summary of the method: as §1
# ING5 = conditions: GST-tagged ING5
# Summary of the method: as §1
# KDM4C (TTP) = tested on: KDM4C (TTP)
# Summary of the method: as §1
# KDM5A (1) = conditions: GST-tagged KDM5A (1)
# Summary of the method: as §1
# KDM5A (3) = conditions: GST-tagged KDM5A (3)
# Summary of the method: as §1
# KDM5B (1) = conditions: GST-tagged KDM5B (1)
# Summary of the method: as §1
# KDM5B (3) = conditions: GST-tagged KDM5B (3)
# Summary of the method: as §1
# KDM7A = conditions: GST-tagged KDM7A
# Summary of the method: as §1
# MLL5 = conditions: GST-tagged MLL5
# Summary of the method: as §1
# MORC3 (CW) = tested on: MORC3 (CW)
# Summary of the method: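 Each reader, produced as a GST fusion and purified, was tested at 0.5 μM on synthetic histone peptides (293 in total) carrying single or combinatorial marks. Intensities averaged over four replicates.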
# PHF13 = conditions: GST-tagged PHF13
# Summary of the method: as §1
# PHF21A = conditions: GST-tagged PHF21A
# Summary of the method: as §1
# PHF23 = conditions: GST-tagged PHF23
# Summary of the method: as §1
# PHF2 = conditions: GST-tagged PHF2
# Summary of the method: as §1
# PHF8 = conditions: GST-tagged PHF8
# Summary of the method: as §1
# PHRF1 (RP) = conditions: GST-tagged PHRF1 (RP)
# Summary of the method: as §1
# RAG2 = conditions: GST-tagged RAG2
# Summary of the method: as §1
# SP140L = conditions: GST-tagged SP140L
# Summary of the method: as §1
# TAF3 = conditions: GST-tagged TAF3
# Summary of the method: as §1
# TRIM66 (PB) = tested on: TRIM66 (PB)
# Summary of the method: as §1
# [1] = sheet "Array Heatmap", arrays performed twice, total replicate number n = 4
# [2] = sheet Array Heatmap, each array performed twice, total n = 4
substance,measurement,setting,value
"H2A (1-17): H2A 1-17 (SGRGKQGGKARAKAKTR; UniProt P0C0S8 2-18, looked up, fragment)","Array Heatmap signal, AIRE (PP)",AIRE (PP); [1],0.3792
same,"Array Heatmap signal, BAZ2B",BAZ2B; [1],0.3936
same,"Array Heatmap signal, BPTF (PB)","BPTF (PB); sheet ""Array Heatmap"", GST-tagged BPTF (PB), arrays performed twice, total replicate number n = 4",0.2947
same,"Array Heatmap signal, CHD4 (PPCC)","CHD4 (PPCC); sheet ""Array Heatmap"", GST-tagged CHD4 (PPCC), arrays performed twice, total replicate number n = 4",0.5048
same,"Array Heatmap signal, CHD5 (PCC)","CHD5 (PCC); sheet ""Array Heatmap"", GST-tagged CHD5 (PCC), arrays performed twice, total replicate number n = 4",0.7396
same,"Array Heatmap signal, CHD5 (PPCC)","CHD5 (PPCC); sheet ""Array Heatmap"", GST-tagged CHD5 (PPCC), arrays performed twice, total replicate number n = 4",0.4702
same,"Array Heatmap signal, DIDO1",DIDO1; [1],0.6067
same,"Array Heatmap signal, DPF2 (PPC2W2)","DPF2 (PPC2W2); sheet ""Array Heatmap"", GST-tagged DPF2 (PPC2W2), arrays performed twice, total replicate number n = 4",0.6154
same,"Array Heatmap signal, ING1",ING1; [1],0.4879
same,"Array Heatmap signal, ING2",ING2; [1],0.6045
same,"Array Heatmap signal, ING3",ING3; [1],0.4033
same,"Array Heatmap signal, ING4",ING4; [1],0.3938
same,"Array Heatmap signal, ING5",ING5; [1],0.2875
same,"Array Heatmap signal, KDM4C (TTP)","KDM4C (TTP); sheet ""Array Heatmap"", GST-tagged KDM4C (TTP), arrays performed twice, total replicate number n = 4",0.4226
same,"Array Heatmap signal, KDM5A (1)",KDM5A (1); [1],0.4209
same,"Array Heatmap signal, KDM5A (3)",KDM5A (3); [1],0.3954
same,"Array Heatmap signal, KDM5B (1)",KDM5B (1); [1],0.663
same,"Array Heatmap signal, KDM5B (3)",KDM5B (3); [1],0.4194
same,"Array Heatmap signal, KDM7A",KDM7A; [1],0.3435
same,"Array Heatmap signal, MLL5",MLL5; [1],0.5078
same,"Array Heatmap signal, MORC3 (CW)","MORC3 (CW); sheet ""Array Heatmap"", GST-tagged MORC3 (CW), arrays performed twice, total replicate number n = 4",0.3444
same,"Array Heatmap signal, PHF13",PHF13; [1],0.527
same,"Array Heatmap signal, PHF21A",PHF21A; [1],0.4214
same,"Array Heatmap signal, PHF23",PHF23; [1],0.4782
same,"Array Heatmap signal, PHF2",PHF2; [1],0.4566
same,"Array Heatmap signal, PHF8",PHF8; [1],0.3118
same,"Array Heatmap signal, PHRF1 (RP)",PHRF1 (RP); [1],0.4275
same,"Array Heatmap signal, RAG2",RAG2; [1],0.2183
same,"Array Heatmap signal, SP140L",SP140L; [1],0.3296
same,"Array Heatmap signal, TAF3",TAF3; [1],0.223
same,"Array Heatmap signal, TRIM66 (PB)","TRIM66 (PB); sheet ""Array Heatmap"", GST-tagged TRIM66 (PB), arrays performed twice, total replicate number n = 4",0.5087
H3K14ac + K18ac: H3 1-20,Array Heatmap signal (histone peptide microarray),AIRE (PP); [2],1
same,Array Heatmap signal (histone peptide microarray),BAZ2B; [2],0.8123
same,Array Heatmap signal (histone peptide microarray),"BPTF (PB); GST-tagged BPTF (PB = PHD + Bromodomain), sheet Array Heatmap, each array performed twice, total n = 4",0.357
same,Array Heatmap signal (histone peptide microarray),"CHD4 (PPCC); GST-tagged CHD4 (PPCC = Dual PHD + Dual Chromodomain), sheet Array Heatmap, each array performed twice, total n = 4",0.581
same,Array Heatmap signal (histone peptide microarray),"CHD5 (PCC); GST-tagged CHD5 (PCC = PHD + Dual Chromodomain), sheet Array Heatmap, each array performed twice, total n = 4",0.8723
same,Array Heatmap signal (histone peptide microarray),"CHD5 (PPCC); GST-tagged CHD5 (PPCC = Dual PHD + Dual Chromodomain), sheet Array Heatmap, each array performed twice, total n = 4",0.5768
same,Array Heatmap signal (histone peptide microarray),DIDO1; [2],0.658
same,Array Heatmap signal (histone peptide microarray),"DPF2 (PPC2W2); GST-tagged DPF2 (PPC2W2 = Dual PHD + C2W2-type Zn-finger), sheet Array Heatmap, each array performed twice, total n = 4",0.9185
same,Array Heatmap signal (histone peptide microarray),ING1; [2],0.5141
same,Array Heatmap signal (histone peptide microarray),ING2; [2],0.6014
same,Array Heatmap signal (histone peptide microarray),ING3; [2],0.4502
same,Array Heatmap signal (histone peptide microarray),ING4; [2],0.4542
same,Array Heatmap signal (histone peptide microarray),ING5; [2],0.355
same,Array Heatmap signal (histone peptide microarray),"KDM4C (TTP); GST-tagged KDM4C (TTP = Tandem Tudor domain + PHD), sheet Array Heatmap, each array performed twice, total n = 4",0.5291
same,Array Heatmap signal (histone peptide microarray),KDM5A (1); [2],0.555
same,Array Heatmap signal (histone peptide microarray),KDM5A (3); [2],0.6717
same,Array Heatmap signal (histone peptide microarray),KDM5B (1); [2],0.7675
same,Array Heatmap signal (histone peptide microarray),KDM5B (3); [2],0.6502
same,Array Heatmap signal (histone peptide microarray),KDM7A; [2],0.4239
same,Array Heatmap signal (histone peptide microarray),MLL5; [2],0.5196
same,Array Heatmap signal (histone peptide microarray),"MORC3 (CW); GST-tagged MORC3 (CW = CW-type Zn-finger), sheet Array Heatmap, each array performed twice, total n = 4",0.487
same,Array Heatmap signal (histone peptide microarray),PHF13; [2],0.5985
same,Array Heatmap signal (histone peptide microarray),PHF21A; [2],0.5152
same,Array Heatmap signal (histone peptide microarray),PHF23; [2],0.5075
same,Array Heatmap signal (histone peptide microarray),PHF2; [2],0.4774
same,Array Heatmap signal (histone peptide microarray),PHF8; [2],0.3925
same,Array Heatmap signal (histone peptide microarray),PHRF1 (RP); [2],0.8706
same,Array Heatmap signal (histone peptide microarray),RAG2; [2],0.2663
same,Array Heatmap signal (histone peptide microarray),SP140L; [2],0.4262
same,Array Heatmap signal (histone peptide microarray),TAF3; [2],0.337
same,Array Heatmap signal (histone peptide microarray),"TRIM66 (PB); GST-tagged TRIM66 (PB = PHD + Bromodomain), sheet Array Heatmap, each array performed twice, total n = 4",0.934

# — publication PMC6979384, “Characterization of the plant homeodomain (PHD) reader family for their histone tail interactions” (Epigenetics & Chromatin, 2020)
